Source: US8247230B2, “Plant stem cell line derived from cambium of herbaceous plant with storage root and method for isolating the same” (Unhwa Corporation, priority 2007, dated 2012)

How the values were obtained:
[1] = tested on: carrot root cambium-containing explant; experiment: Cell line induction in carrot explant with varying kinds of auxins in induction medium; format: cell-based, Daucus carota L.; conditions: for Cell line induction pattern (in words): auxin used in induction medium; for Reaction with respect to cambium: auxins at the same concentration in induction medium, after osmotic stress
Experimental: A carrot (Daucus carota L.) was prepared and surface-sterilized in the same manner as in Example 1-1. Then, the prepared sample was treated with osmotic stress in the same manner as in Example 1-2 and Example 1-3, and then a cambium-derived cell line was induced from the carrot.
Also, other plant hormone auxins, including IAA, IBA, picloram, 2,4-D, CPA and NAA, were used at the same concentration to examine the influence of the hormone used in induction medium.

[2] = tested on: ginseng root cambium-containing explant; experiment: Cell induction in ginseng explant cultured in 2,4-D-containing medium; format: cell-based; conditions: about 7-14 days after yellowing
Experimental: Meanwhile, in order to examine the influence of the hormone used in the induction medium, the explant was cultured in a 2,4-D-containing medium, which was not the cambium-derived cell line induction medium and has been used in the conventional culture of general ginsengs. […] In other words, it could be seen that, when 2,4-D was used, cell line was induced all other tissues, non-specifically to the cambium.
As shown in FIG. 3(b), when a general culture system containing 2,4-D was used in culture, cells were induced from various tissues (cortex, phloem, xylem, cambium, pith, etc.) present in the entire cross section, and the various cells were mixed with each other. Thus, the induced and proliferated cells had heterogeneity. […] Thus, the induced cells had homogeneity.

MMP-1 = experiment: Inhibition of MMP-1 expression caused by UV light (UVB) in NHF cells; format: cell-based, human; conditions: 10 uM, 40 mJ UVB, 48 hours, No UV = 100, Control UV = 230
Experimental: When MMPs are increased due to exposure to UV light, the increased MMPs degrade skin collagen to form skin wrinkles. Thus, the following test was carried out in order to examine whether MMP-1 expression increased due to UV light is inhibited by an extract or culture medium of the true wild ginseng cambium-derived homogeneous cell line.
NHF (normal human fibroblast) cells used in the test were isolated from the fetal penis prepuce and cultured. The culture medium was prepared by adding 10% fetal bovine serum (FBS, Hyclone, Logan, Utah, USA), inactivated by heating at 56° C. for 30 minutes, 100 unit/ml of penicillin, 100 μg/ml of streptomycin and 300 μg/ml of glutamine to DMEM medium (Invitroge Gibco life tech. Vienna, Austriea). The cells were cultured in the medium in a 5% CO2 incubator at a temperature of 37° C. and a humidity of 95% and subcultured at 3-4-day intervals, immediately before the cells were fused with each other.
NHF(p6) cells were dispensed into a 12-well plate at a density of 75,000 cells/well and starved for 24 hours. Then, the cells were radiated with 40 mJ of UVB and treated with varying concentrations of each sample for 48 hours. Then, an experiment was carried out using a kit (Amersham, RPN 2610). As a positive control group, 10 μM retinoic acid was used. […]

[3] = tested on: ginseng cambium-derived cell line; experiment: Proliferation of ginseng cambium-derived cell line in growth medium; format: cell-based; conditions: growth medium containing IAA, not 2,4-D
Experimental: As shown in FIG. 3(a), after the explant was cultured in medium 2 of Example 1 to necrotize tissues other than the cambium, it was subcultured in medium 3. Medium 3 is an optimal medium for the proliferation of the cambium-derived cell line and is based on the basal salt composition shown in Table 6. When the cambium-derived homogeneous cell line having the ability to divide was cultured in medium 3, it continually divided and proliferated. After about 10-20 days of the culture, the cambium-derived cell line was isolated, and the isolated cell line was allowed to proliferate again in the same medium (medium 3).

[4] = tested on: true wild ginseng adventitious root cambium-derived cell line; experiment: Proliferation of true wild ginseng adventitious root cambium-derived cell line in growth medium; format: cell-based; conditions: hormone used instead of 2,4-D in medium 3
From the text: As a result, the cambium-derived homogeneous cell line having the ability to divide continually divided and proliferated, and thus after about 10-20 days of the culture, the cambium-derived homogeneous cell line having the ability to divide could be isolated. The true wild ginseng cambium-derived homogeneous cell line thus isolated was allowed to proliferate again by culturing it in the same medium. […] Meanwhile, in the true wild ginseng adventitious root cambium-containing explant in Example 2-1, the cell line was allowed to proliferate in the same manner as in Example 2, except that IBA was used instead of 2,4-D in Table 7.

SMILES | Cell line induction pattern (in words) [1] | Reaction with respect to cambium [1] | other results
O=C(O)COc1ccc(Cl)cc1 [CPA] | the cell line was induced throughout the whole explant rather than with respect to the cambium | − | 
Nc1c(Cl)c(Cl)nc(C(=O)O)c1Cl [Picloram, picloram] | the cell line was induced throughout the whole explant rather than with respect to the cambium | − | 
O=C(O)COc1ccc(Cl)cc1Cl [2,4-D, 2,4-dichlorophenoxyacetic acid] | the cell line was induced throughout the whole explant rather than with respect to the cambium | − | Cell induction pattern (in words) [2]: cells were induced throughout the whole cross section
CC1=C(/C=C/C(C)=C/C=C/C(C)=C/C(=O)O)C(C)(C)CCC1 [Retinoic acid, retinoic acid] |  |  | MMP-1 expression, % of control (MMP-1): 85 % of control
O=C(O)Cc1c[nH]c2ccccc12 [IAA, indole-3-acetic acid] | the homogeneous cell line was induced with respect to the cambium |  | Proliferation in growth medium (in words) [3]: did not proliferate and showed a tendency to differentiate; Proliferation in growth medium (in words) [4]: did not differentiate and showed a tendency to differentiate
O=C(O)Cc1cccc2ccccc12 [NAA] | the cell line was induced throughout the whole explant rather than with respect to the cambium | − | Root induction with the passage of time (in words) ([1]; after about 4 weeks): a root was induced and differentiated in the cambium
O=C(O)CCCc1c[nH]c2ccccc12 [IBA, indole-3-butyric acid] | the homogeneous cell line was induced with respect to the cambium |  | Proliferation in growth medium (in words) [4]: did not differentiate and proliferated
